Here are results for one molecule from patent US20210260036A1, “METHODS OF TREATMENT FOR ALPHA-1 ANTITRYPSIN DEFICIENCY” (Vertex Pharmaceuticals Incorporated, priority 2020, published 2021).

Data set [1] concerns the target T1, Z-AAT (Homo sapiens, UniProt P01009, E366K). The data set is described as follows: Z-AAT folding, polymerization and secretion in cell line models. The data set is classed as cell-based. The settings on record: multiple cell line models. From the text: (§1) 4-[5-(4-fluorophenyl)-6-tetrahydropyran-4-yl-1H-pyrrolo[2,3-f]indazol-7-yl]benzoic acid (Compound I), disclosed in PCT/US2020/032832, filed on May 14, 2020, is being developed as a treatment for AATD. […] Thus, Compound I has the potential to address both the loss-of-function and the gain-of-function aspects of the Z mutation. By restoring physiological levels of circulating AAT activity, Compound I may reduce the risk of lung disease. By preventing Z-polymer formation in the liver, Compound I may reduce the risk of developing progressive liver disease (fibrosis and cirrhosis).

The target in data set [2] is T1, Z-AAT. The data set can be described thus: Z-AAT folding and secretion in transgenic mice expressing human Z-AAT. The data set is classed as in vivo. Set-up: expressed in transfected cells; host or cells: transgenic mice expressing human Z-AAT. The following applies: transgenic mice engineered to express human Z-AAT.
Excerpt: as §1

Data set [3] relates to healthy subjects. The data set can be described thus: Phase 1 randomized, double-blinded, placebo-controlled single and multiple-dose study. It is filed as in vivo, human. The settings on record: single and multiple doses. An excerpt: A randomized, double-blinded, placebo-controlled single and multiple-dose Phase I study evaluating Compound I has been completed in healthy subjects.

T1 sequence (P01009 25-418 E366K): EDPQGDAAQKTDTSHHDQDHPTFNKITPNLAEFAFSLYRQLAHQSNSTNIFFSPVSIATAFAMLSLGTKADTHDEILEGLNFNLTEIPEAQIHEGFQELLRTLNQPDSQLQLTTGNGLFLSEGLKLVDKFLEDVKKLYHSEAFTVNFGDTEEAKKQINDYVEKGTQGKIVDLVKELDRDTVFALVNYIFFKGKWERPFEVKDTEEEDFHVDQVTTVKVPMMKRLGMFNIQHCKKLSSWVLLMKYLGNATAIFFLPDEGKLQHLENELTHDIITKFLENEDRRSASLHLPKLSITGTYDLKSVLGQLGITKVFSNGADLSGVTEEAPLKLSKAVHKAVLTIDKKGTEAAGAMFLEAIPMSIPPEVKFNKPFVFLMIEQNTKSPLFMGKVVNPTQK

On to `O=C(O)c1ccc(-c2c(C3CCOCC3)n(-c3ccc(F)cc3)c3cc4cn[nH]c4cc23)cc1` [Compound I, 4-[5-(4-fluorophenyl)-6-tetrahydropyran-4-yl-1H-pyrrolo[2,3-f]indazol-7-yl]benzoic acid], for which, in data set [1], the “folding of Z-AAT” value is given as “promotes the proper folding of Z-AAT”, the “intracellular Z-AAT protein polymerization” value is listed as “preventing intracellular Z-AAT protein polymerization” and the “secretion of functionally active AAT” value is reported as “increasing secretion of functionally active AAT”. For the same molecule, the “folding and secretion of functionally active AAT” value in data set [2] was “facilitates proper folding and secretion of functionally active AAT”. In addition, in data set [3], the safety and tolerability entry is “safe and well-tolerated”; the serious adverse events result is listed as “no serious adverse events”.
